Measured values taken from patent US11953435B2, “Zinc-responsive fluorophores” (Northwestern University, priority 2019, dated 2024).
“Also recorded” adds a separate entry of the source.

System: MII egg
Test: Confocal imaging of zinc in live MII eggs
Type: cell-based, mouse
Text: [formula] [formula] [formula] where r(t) is the anisotropy, P(t) is the polarization, Ivv and Ivh are intensities with polarization in the vertical plane and the excitation in the vertical and horizontal planes respectively, Ihv and Ihh are intensities with polarization in the horizontal plane and the excitation in the vertical and horizontal planes respectively, and G is a g-factor that corrects for instrument sensitivity in the horizontal and vertical planes. Metal content of NMR samples. Inductively coupled plasma mass spectrometry (ICP-MS) was performed on a Thermo iCAP Q ICP-MS. 1 mg/mL of ZincBY-1 or ZincBY-4 in acetonitrile-d3 or acetonitrile-d3 only was evaporated overnight at 70° C. 150 μL of HNO3 was added and the samples were digested overnight at 70° C. Samples were diluted to a final nitric acid concentration of 3%. ICP-MS was operated in collision cell mode to reduce polyatomic interferences. An internal standard comprising ^7Li, ^89Y, and ^115In was used. Each sample was acquired using one survey run (10 sweeps) and three main (peak jumping) runs (100 sweeps). Data was fit to a standard curve using a standard containing ^45Sc, […], ^51V, ^52Cr, ^55Mn, ^56Fe, ^59Co, ^58Ni, ^63Cu, and ^64Zn from 5 ppb to 1000 ppb. Only ^56Fe and ^64Zn were detected in the samples above background levels. Computational Analysis of ZincBY-1 and ZincBY-4. All density functional theory (DFT) calculations were performed using version 4.0.1 of the ORCA electronic structure package (Ref. B6; incorporated by reference in its entirety). Guided by the results of earlier studies on BODIPY derivatives (Ref. B7; incorporated by reference in its entirety), the PBE0 functional (Refs. B8-B10; incorporated by reference in their entireties) was used to optimize the geometries of all molecules studied, while time dependent DFT (TD-DFT) calculations and charge analysis through the CHarges from ELectrostatic Potentials using a Grid-based method (CHELPG) (Ref. B11; incorporated by reference in its entirety) were performed with the oB97-XD3 functional (Ref. B12; incorporated by reference in its entirety). All calculations utilized the def2-TZVP basis set (Ref B13; incorporated by reference in its entirety) with the resolution of the identity approximation coupled with the chain of spheres exchange method (RIJCOSX) (Refs. B14-B16; incorporated by reference in their entireties), using the def2/J auxiliary basis (Ref B17; incorporated by reference in its entirety). Implicit solvation effects were included through the conductor like polarizable continuum model (CPCM) (Ref B18; incorporated by reference in its entirety). Calculated spectra were broadened by Gaussians of width 0.2 eV, and red shifted by 0.64 eV to better match the experimental spectra per Momeni and Brown (Ref. B7; incorporated by reference in its entirety). Animals and Egg Collection Mouse. To collect MII-arrested eggs, female mice of at least 5 weeks in age were injected with 5 IU pregnant mare serum gonadotropin (PMSG) followed by 5 IU human chorionic gonadotropin (hCG) 48 hours later. Intact cumulus-oocyte complexes (COCs) were isolated from the oviducts 15 hours after the administration of hCG. Cumulus cells were denuded using 0.3% (w/v) hyaluronidase. Animals were treated in accordance with the US National Institutes of Health Guide for the Care and Use of Laboratory Animals. Food and water were given ad libitum. The Northwestern University Institutional Animal Care and Use Committee approved all the protocols. C. Elegans. Wildtype strain Bristol N2 was used as a control strain in fluorescence microscopy experiments. EU1067: unc-119(ed3) ruIs32[unc-119(+) pie-1^promoter::GFP::H2B] III; ruIs57[unc-119(+) pie-P1^promoter:GFP::tubulin] was used as a marker for cortical granules in fluorescence microscopy experiments. EU1067 was provided by the Caenorhabditis Genetics Center (CGC). […]

In the case of `COc1ccc2n1[B-](F)(F)[N+]1=C(N(CCN(Cc3ccccn3)Cc3ccccn3)Cc3ccccn3)C=CC1=C2c1c(C)cc(C)cc1C` [ZincBY-1, reference compound], the “excitation at 488 nm in the MII egg” value (50 nM probe) is reported as “Only ZincBY-4 was readily excited at 488 nm” and the “excitation at 552 nm in the MII egg” value (50 nM probe) is reported as “both probes were excitable at 552 nm”.

For `CC(=O)NCCOc1ccc2n1[B-](F)(F)[N+]1=C(N(CCN(Cc3ccccn3)Cc3ccccn3)Cc3ccccn3)C=CC1=C2c1c(C)cc(C)cc1C` [ZincBY-4, N-(2-((7-((2-(bis(pyridin-2-ylmethyl)amino)ethyl)(pyridin-2-ylmethyl)amino)-5,5-difluoro-10-mesityl-5H-5λ4,6λ4-dipyrrolo[1,2-c:2′,1′-f][1,3,2]diazaborinin-3-yl)oxy)ethyl)acetamide], the “excitation at 488 nm in the MII egg” value (50 nM probe) was “only ZincBY-4 exhibits a strong fluorescence intensity upon excitation at 488 nm; also recorded: Only ZincBY-4 was readily excited at 488 nm”, the “excitation at 552 nm in the MII egg” value (50 nM probe) was “both probes were excitable at 552 nm” and the “region of fluorescence emission in MII eggs” value (50 nM probe, 488 nm excitation) was 575-750 nm. The “effect of TPEN on fluorescence in stained MII eggs” value (TPEN 5 μM) was “loss of fluorescence signal in the vesicle region; also recorded: loss in fluorescence was observed”, the “spectral overlap with TubulinTracker Green in the MII egg” value (single excitation at 488 nm) was “virtually no ZincBY-4 emission detected in the 495-530 nm emission channel; also recorded: virtually no spectral overlap between the two probes” and the “fluorescence change on chemical activation (ionomycin) of MII eggs” value (time lapse imaging, ionomycin 5 μM) was “increase in fluorescence intensity outside the egg while fluorescence intensity is lost in the periphery region; also recorded: both loss of zinc from the zinc granule region and increase of zinc outside the cell without the need of a second probe was observed”. The usable working concentration (where other probes require micromolar amounts) was 50 nM and the “Stokes shift in cells” value (within cells) was roughly 100 nm.
